In US8604059B2, “Thioxanthene derivatives for the treatment of infectious diseases” (BKG Pharma APS, priority 2009, dated 2013):
Converted amounts (≈) assume the structure as drawn. “And” between values parts separate entries of the source, which are not always exact repeats. Identical values can stand only once.

Legend:
[1] = tested on: S. aureus MRSA clinical isolates; assay: FIC index, synergy with antibiotics (Table 4a); format: cell-based, Staphylococcus aureus; details: with Dicloxacillin; 8 MRSA; mean; compound at ¼ of MIC
Method: The effect of the compounds was tested according to the methods described in WO2005/105145. In brief, cell growth was tested using the MIC susceptibility tests by use of the microdilution broth method in accordance to the NCCLS Guidelines (NCCLS Guidelines, Methods for Dilution Antimicrobial Susceptibility Tests for Bacteria That Grow Aerobically; Approved Standard, Sixth Edition, Volume 23; Number 2).
The Fractional Inhibitory Concentration (FIC) index were calculated for each compound as described in WO2005/105145. Synergy was defined for Fractional Inhibitory Concentration (FIC) indices less than 0.5
Staphylococcus aureus: 8 (MRSA) in vivo-selected clinical isolates. Resistant to methicillin and beta-lactam antibiotics. Susceptible to teicoplanin chloramphenicol, fosfomycin, netilmicin and vancomycin.

[2] = tested on: Multiresistant clinical isolates E. coli; assay: Maximal reversal of resistance and synergistic effect (Table 4c); format: cell-based; details: E. coli multiresistant isolates
Method: The maximal obtained reversal of resistance and synergistic effect was tested as previously described.
Strains: Multiresistant clinical isolates E. coli, Ten strains in each group.

MT4 cells = assay: Cytotoxic effect in uninfected MT4 cultures; format: cell-based; details: at the concentrations used
Method: (§1) Compounds were examined for possible antiviral activity against strain IIIB of HIV-1 using MT4 cells as target cells. MT4 cells were incubated with virus (0.005 MOI) and growth medium containing the test dilutions of compound(s) for six days in parallel with virus-infected and uninfected control cultures without compound added. Expression of HIV in the cultures was indirectly quantified using the MTT assay as previously described. Compounds mediating less than 30% reduction of HIV expression were considered without biological activity. Compounds were tested in parallel for cytotoxic effect in uninfected MT4 cultures containing the test dilutions of compound as described above. Cultures for test of both antiviral activity and cytotoxic effect were set up in tripleduplicates, […] per culture in micro titre plates. A 30% inhibition of cell growth relative to control cultures was considered significant. The 50% inhibitory concentration was determined by interpolation from the plots of percent inhibition versus concentration of compound.
(§2) CC50 is defined as the inhibitory concentration that reduces cellular growth or viability of uninfected cells by 50%.

[3] = Cytotoxic effect in uninfected MT4 cultures; format: cell-based; details: human, uninfected MT4 cells; single agent; uninfected MT4
Method: as §1, §2

[4] = tested on: Enterococcus faecalis BG VSE-92; assay: Mouse peritonitis/sepsis model, NMRI mice; format: in vivo; details: 3.1 mg/kg s.c.
Method: Mouse peritonitis/sepsis model.
A clinical isolate of Enterococcus faecalis BG VSE-92 from human urine was used. This strain is a multiresistant isolate.
Female NMRI mice (age, approximately 6 to 8 weeks; weight, 30±2 g) were used for the mouse […] peritonitis model (as described below).
Bacterial suspensions were prepared from fresh overnight cultures (made from frozen stock cultures) on 5% blood agar plates as described above. The inoculum for the mouse peritonitis model was prepared immediately before use and was adjusted at 540 nm of giving a density of approximately 10^7 CFU/ml. The size of the inoculum was determined by viability counting on 5% blood agar.
The mice were injected intraperitoneally with 0.5 ml of the enterococcal suspension, resulting in bacteremia within 1 h of inoculation. Antibiotic therapy was initiated 1 h after inoculation. N-dealkyl-Trans-clopenthixol was administered subcutaneously in the neck region in a volume of 0.7 ml per dose. Five mice were in each treatment group. Inoculated untreated control mice were included in all trials. (Method reference: Erlandsdottir et al; Antimicrob Agents Chemother. 2001 April; 45(4):1078-85)
The effects of the various treatment regimens were determined during 5 h of treatment by evaluation of bacterial counts in the peritoneal fluid. The bactericidal efficacies of the treatment regimens in the mouse models were calculated by subtracting the results for each treated mouse from the mean results for control mice at the end of therapy (5 h). A decrease of one thousand times (3 log 10 steps) represents maximum effect in this model and sustains strong bacterial killing effect of the compound tested.

E. faecium = assay: MIC, microdilution broth, multiresistant clinical isolates (Table 1A); format: cell-based; details: Enterococcus faecium; ten multiresistant clinical isolates; read-out: Median MIC E. faecium
Method: (§3) Cell growth was tested using the Minimal Inhibitory Concentration (MIC) susceptibility tests by use of the microdilution broth method in accordance to the NCCLS Guidelines (NCCLS Guidelines, Methods for Dilution Antimicrobial Susceptibility Tests for Bacteria That Grow Aerobically; Approved Standard, Sixth Edition, Volume 23; Number 2). The minimum inhibitory concentration (MIC), is defined as the lowest concentration of drug which inhibits growth of the test organism, in the sense that no visible growth is detected (total inhibition of growth). In example 2, MIC of the compounds used on fungal microorgansims was determined from the IC90 measurements according to NCCLS Guidelines.
(§4) A log phase culture of bacteria was diluted with fresh pre-warmed Mueller-Hinton medium and adjusted to a defined OD at 600 nm in order to give a final concentration of 1×10^4-5 bacteria/ml medium. The bacterial culture was transferred to microtiter-plates and culture was added to each well. […] Trays were incubated at 37° C. by shaking in a robot analyzer, PowerWavex, software KC^4′ Kebo. Lab, Copenhagen, for 16 h and optical densities were measured at 600 nm during the incubation time in order to record growth curves. Wells containing bacterial culture without drug were used as controls to ensure correct inoculum size and bacterial growth during the incubation. Cultures were tested in order to detect contaminations. Each experiment was repeated in triplicate.
(§5) Ten strains in each test group.

S. epidermidis = assay: as above; format: cell-based; details: Staphylococcus epidermidis; ten multiresistant clinical isolates; read-out: Median MIC S. epidermidis
Method: as §3, §4, §5

Gram negative sp. = assay: MIC on multiresistant and susceptible clinical isolates (Table 1b); format: cell-based; details: 8 multiresistant and 8 susceptible isolates
Method: as §3
(§6) A log phase culture of bacteria was diluted with fresh pre-warmed Mueller-Hinton medium and adjusted to a defined OD at 600 nm in order to give a final concentration of 1×10^4-5 bacteria/ml medium. The bacterial culture was transferred to microtiter-plates and culture was added to each well. Drug was added to the bacterial culture in the wells as two-fold dilution series of drug in order to give final concentrations ranging from 0.03 to 128 μg/ml. Trays were incubated at 37° C. by shaking in a robot analyzer, PowerWavex, software KC^4′ Kebo. Lab, Copenhagen, for 16 h and optical densities were measured at 600 nm during the incubation time in order to record growth curves. Wells containing bacterial culture without drug were used as controls to ensure correct inoculum size and bacterial growth during the incubation. Cultures were tested in order to detect contaminations. Each experiment was repeated in triplicate. MIC values represent the mean values of two separate triplicate experiments. Intra- and interassay variation was <5%.
(§7) Clinically relevant human bacterial isolates of Staphylococci, Streptococci, Micrococci and Gram negative species was cultured and assayed as described above for susceptibility towards the compounds listed in table 1b.

[5] = tested on: Staphylococci, Micrococci. Including MRSA; assay: as above; format: cell-based; details: Micrococci incl. MRSA, 8 multiresistant and 8 susceptible isolates
Method: as §3, §6, §7

Streptococci = assay: as above; format: cell-based; details: 8 multiresistant and 8 susceptible isolates
Method: as §3, §6, §7

Structure (SMILES): Clc1ccc2c(c1)/C(=C/CCC1CCNCC1)c1ccccc1S2 [Compound 3]
- FIC index [1]: 0.25
- Maximal reversal of resistance: concentration of compound [2]: 0.6 µg/mL
- Cytotoxic effect alone (MT4 cells): no antiviral or cytotoxic effect
- CC50 at 6 days [3]: > 4 µM
- Decrease of number of bacteria per ml of peritoneal fluid ([4]; 5 hours, vs control): 3 log 10 steps
- Bacteria survived after 5 hours ([4]; p<0.05): 0.001%
- CFU/ml - peritoneum ([4]; treatment 0 and 1 hour, sampling 5 hours, individual mice): 2.05E+06 CFU/ml and 2.90E+06 CFU/ml and 4.25E+06 CFU/ml
- MIC (E. faecium): 0.1 µg/mL (≈ 0.281 µM)
- MIC (S. epidermidis): 1 µg/mL (≈ 2.81 µM)
- MIC Mean (Gram negative sp.): 3 µg/mL (≈ 8.43 µM)
- MIC Mean [5]: 0.25 µg/mL (≈ 0.702 µM)
- MIC Mean (Streptococci): 0.25 µg/mL (≈ 0.702 µM)
